From patent US6878722B2, “Substituted cycloalkyl P1′ hepatitis C virus inhibitors” (Bristol-Myers Squibb Company, priority 2002, dated 2005)

Legend:
[1] = target: T1, HCV NS3/4A protease complex (BMS strain, genotype 1a) (Hepatitis C virus genotype 1a, UniProt P27958, C1454S); experiment: Recombinant HCV NS3/4A protease complex FRET peptide assay, BMS strain; format: biochemical; settings: IC50 range, NS3/4A BMS Strain
T1 construct: DNA encoding the recombinant HCV NS3/4A protease complex (amino acids 1027 to 1711) for these strains; inferred from the pET21b vector and Ni-NTA purification; made in house; host or cells: Escherichia coli BL21 (DE3), pET21b
Method in brief: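 Recombinant NS3/4A complex (aa 1027–1711) with C-terminal three-lysine tail, C1711G and C1454S, expressed in E. coli BL21(DE3) and purified by Ni-NTA then Superdex-S200. Inhibition of the complex from each strain measured in vitro by FRET peptide cleavage.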

[2] = tested on: HCV replicon in Huh7 cells; experiment: HCV replicon cell-based assay (FRET); settings: Hepatitis C virus, Huh-7; HCV replicon; read-out: EC50 range
Method in brief: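 Huh7 cells stably carrying a genotype 1b HCV replicon (IRES-neo-EMCV-IRES-NS3-NS5B) were treated with compound for 4 days at 37 °C in 0.5% DMSO final. Lysates containing 10 μM FRET peptide RET S1 were read kinetically at 340/490 nm to give NS3 protease activity, from which EC50 was derived.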

T1 sequence (P27958 1658-1714, looked up, stated change not applied): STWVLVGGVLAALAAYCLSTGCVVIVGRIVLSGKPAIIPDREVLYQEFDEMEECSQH
T1 sequence (P27958 1027-1657, looked up, stated change not applied): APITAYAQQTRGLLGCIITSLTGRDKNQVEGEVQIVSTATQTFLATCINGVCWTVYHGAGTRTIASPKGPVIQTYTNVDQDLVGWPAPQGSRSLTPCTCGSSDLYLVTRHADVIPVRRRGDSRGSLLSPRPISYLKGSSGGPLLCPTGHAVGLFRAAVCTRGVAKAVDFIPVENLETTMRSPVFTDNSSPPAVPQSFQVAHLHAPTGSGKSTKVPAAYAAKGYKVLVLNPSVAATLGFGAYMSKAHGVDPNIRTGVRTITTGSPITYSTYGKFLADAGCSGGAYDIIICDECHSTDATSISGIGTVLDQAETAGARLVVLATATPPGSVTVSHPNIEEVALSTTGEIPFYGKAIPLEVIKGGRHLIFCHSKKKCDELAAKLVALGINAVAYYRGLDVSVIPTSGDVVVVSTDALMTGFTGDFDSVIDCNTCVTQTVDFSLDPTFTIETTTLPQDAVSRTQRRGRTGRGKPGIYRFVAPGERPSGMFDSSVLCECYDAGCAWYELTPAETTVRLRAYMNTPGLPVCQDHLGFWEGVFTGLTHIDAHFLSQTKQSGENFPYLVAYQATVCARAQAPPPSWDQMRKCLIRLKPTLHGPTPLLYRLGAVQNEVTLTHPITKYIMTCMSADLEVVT

SMILES | IC50 [1] | EC50 [2]
C=CCC1(S(=O)(=O)NC(=O)[C@@]2(NC(=O)[C@@H]3C[C@@H](Oc4ccnc5cc(Cl)ccc45)CN3C(=O)[C@@H](NC(=O)OC3CCCC3)C(C)(C)C)C[C@H]2C=C)CC1 [Compound 67, {1-[2-[1-(1-Allyl-cyclopropanesulfonylaminocarbonyl)-2-vinyl-cyclopropylcarbamoyl]-4-(7-chloro-quinolin-4-yloxy)-pyrrolidine-1-carbonyl]-2,2-dimethyl-propyl}-carbamic acid cyclopentyl ester] | 0.05 to 0.5 µM | 0.05 to 0.5 µM
C=C[C@@H]1C[C@]1(NC(=O)[C@@H]1C[C@@H](Oc2cc(-c3ccccc3)nc3cc(OC)ccc23)CN1C(=O)[C@@H](NC(=O)O[C@H]1CCOC1)C(C)(C)C)C(=O)NS(=O)(=O)C1(Cc2ccccc2)CC1 [Compound 57, {1-[2-[1-(1-Benzyl-cyclopropanesulfonylaminocarbonyl)-2-vinyl-cyclopropylcarbamoyl]-4-(7-methoxy-2-phenyl-quinolin-4-yloxy)-pyrrolidine-1-carbonyl]-2,2-dimethyl-propyl}-carbamic acid tetrahydro-furan-3-yl ester] | < 0.05 µM | 0.05 to 0.5 µM
C=C[C@@H]1C[C@]1(NC(=O)[C@@H]1C[C@@H](Oc2cc(-c3nc(C(C)C)cs3)nc3cc(OC)ccc23)CN1C(=O)[C@@H](NC(=O)OC(C)(C)C)C(C)(C)C)C(=O)OS(=O)(=O)C1(CCC)CC1 [Compound 77] | < 0.05 µM | < 0.05 µM
C=C[C@@H]1C[C@]1(NC(=O)[C@@H]1C[C@@H](Oc2cc(-c3ccccc3)nc3cc(OC)ccc23)CN1C(=O)[C@@H](NC(=O)OC(C)(C)C)C(C)C)C(=O)NS(=O)(=O)C1(COC)CC1 [Compound 54, {1-[2-[1-(1-Methoxymethyl-cyclopropanesulfonylaminocarbonyl)-2-vinyl-cyclopropylcarbamoyl]-4-(7-methoxy-2-phenyl-quinolin-4-yloxy)-pyrrolidine-1-carbonyl]-2-methyl-propyl]-carbamic acid tert-butyl ester] | < 0.05 µM | < 0.05 µM
C=C[C@@H]1C[C@]1(NC(=O)[C@@H]1C[C@@H](Oc2cc(-c3ccccc3)nc3cc(OC)ccc23)CN1C(=O)[C@@H](NC(=O)OC(C)(C)C)C(C)(C)C)C(=O)NS(=O)(=O)C1(I)CC1 [Compound 39, {1-[2-[1-(1-Iodo-cyclopropanesulfonylaminocarbonyl)-2-vinyl-cyclopropylcarbamoyl]-4-(7-methoxy-2-phenyl-quinolin-4-yloxy)-pyrrolidine-1-carbonyl]-2,2-dimethyl-propyl}-carbamic acid tert-butyl ester] | < 0.05 µM | < 0.05 µM
C=C[C@@H]1C[C@]1(NC(=O)[C@@H]1C[C@@H](Oc2cc(C3CC3)nc3cc(OC)ccc23)CN1C(=O)[C@@H](NC(=O)OC(C)(C)C)C(C)(C)C)C(=O)NS(=O)(=O)C1(CC#CCC)CC1 [Compound 69, (1-{4-(2-Cyclopropyl-7-methoxy-quinolin-4-yloxy)-2-[1-(1-pent-2-ynyl-cyclopropanesulfonylaminocarbonyl)-2-vinyl-cyclopropylcarbamoyl]-pyrrolidine-1-carbonyl}-2,2-dimethyl-propyl)-carbamic acid tert-butyl ester] | < 0.05 µM | < 0.05 µM
C=C[C@@H]1C[C@]1(NC(=O)[C@@H]1C[C@@H](Oc2cc(-c3ccccc3)nc3cc(OC)ccc23)CN1C(=O)[C@@H](NC(=O)Oc1ccc(F)cc1)C(C)(C)C)C(=O)NS(=O)(=O)C1(Cc2ccccc2)CC1 [Compound 102] | 0.05 to 0.5 µM | 0.5 to 5 µM
C=C[C@@H]1C[C@]1(NC(=O)[C@@H]1C[C@@H](Oc2cc(C3CC3)nc3cc(OC)ccc23)CN1C(=O)[C@@H](NC(=O)OC(C)(C)C)C(C)(C)C)C(=O)NS(=O)(=O)C1(CC2CC2)CC1 [Compound 70, (1-{4-(2-Cyclopropyl-7-methoxy-quinolin-4-yloxy)-2-[1-(1-cyclopropylmethyl-cyclopropanesulfonylaminocarbonyl)-2-vinyl-cyclopropylcarbamoyl]-pyrrolidine-1-carbonyl}-2,2-dimethyl-propyl)-carbamic acid tert-butyl ester] | < 0.05 µM | < 0.05 µM
COc1ccc2c(O[C@@H]3C[C@@H](C(=O)NC4(C(=O)NS(=O)(=O)C5(Cc6ccccc6)CC5)CC45CC5)N(C(=O)[C@@H](NC(=O)OC(C)(C)C)C(C)(C)C)C3)cc(-c3ccccc3)nc2c1 (mixture of isomers) [Compound 201, {1-[2-[1-(1-Benzyl-cyclopropanesulfonylaminocarbonyl)-spiro[2.2]pent-1-ylcarbamoyl]-4-(7-methoxy-2-phenyl-quinolin-4-yloxy)-pyrrolidine-1-carbonyl]-2,2-dimethyl-propyl}-carbamic acid tert-butyl ester] | 0.5 to 5 µM | 5 to 50 µM
C=C[C@@H]1C[C@]1(NC(=O)[C@@H]1C[C@@H](Oc2cc(-c3ccccc3)nc3cc(OC)ccc23)CN1C(=O)[C@@H](NC(=O)OC(C)(C)C)C(C)(C)C)C(=O)NS(=O)(=O)C1(CC#CCC)CC1 [Compound 45, (1-{4-(7-Methoxy-2-phenyl-quinolin-4-yloxy)-2-[1-(1-pent-2-ynyl-cyclopropanesulfonylaminocarbonyl)-2-vinyl-cyclopropylcarbamoyl]-pyrrolidine-1-carbonyl}-2,2-dimethyl-propyl)-carbamic acid tert-butyl ester] | < 0.05 µM | < 0.05 µM
CCCC1(S(=O)(=O)NC(=O)[C@@]2(NC(=O)[C@@H]3C[C@@H](Oc4cc(-c5ccccc5)nc5cc(OC)ccc45)CN3C(=O)[C@@H](NC(=O)OC(C)(C)C)C(C)(C)C)CC2C2CC2)CC1 (stereo partly shown) [Compound 203] | < 0.05 µM | 0.05 to 0.5 µM
C=C[C@@H]1C[C@]1(NC(=O)[C@@H]1C[C@@H](Oc2cc(-c3ccccc3)nc3cc(OC)ccc23)CN1C(=O)[C@@H](NC(=O)OC(C)(C)C)C(C)(C)C)C(=O)NS(=O)(=O)C1(Cc2cc(C)on2)CC1 [Compound 51, [1-(4-(7-Methoxy-2-phenyl-quinolin-4-yloxy)-2-{1-[1-(5-methyl-isoxazol-3-ylmethyl)-cyclopropanesulfonylaminocarbonyl]-2-vinyl-cyclopropylcarbamoyl}-pyrrolidine-1-carbonyl)-2,2-dimethyl-propyl]-carbamic acid tert-butyl ester] | < 0.05 µM | < 0.05 µM
C=C[C@@H]1C[C@]1(NC(=O)[C@@H]1C[C@@H](Oc2ccnc3cc(Cl)ccc23)CN1C(=O)[C@@H](NC(=O)OC1CCCC1)C(C)(C)C)C(=O)NS(=O)(=O)C1(CC2CC2)CC1 [Compound 66, (1-{4-(7-Chloro-quinolin-4-yloxy)-2-[1-(1-cyclopropylmethyl-cyclopropanesulfonylaminocarbonyl)-2-vinyl-cyclopropylcarbamoyl]-pyrrolidine-1-carbonyl}-2,2-dimethyl-propyl)-carbamic acid cyclopentyl ester] | < 0.05 µM | 0.05 to 0.5 µM
C=C[C@@H]1C[C@]1(NC(=O)[C@@H]1C[C@@H](Oc2cc(-c3ccccc3)nc3cc(OC)ccc23)CN1C(=O)[C@@H](NC(=O)OC(C)(C)C)C(C)(C)C)C(=O)NS(=O)(=O)C1(Cc2cccnc2)CC1 [Compound 49, (1-{4-(7-Methoxy-2-phenyl-quinolin-4-yloxy)-2-[1-(1-pyridin-3-ylmethyl-cyclopropanesulfonylaminocarbonyl)-2-vinyl-cyclopropylcarbamoyl]-pyrrolidine-1-carbonyl}-2,2-dimethyl-propyl)-carbamic acid tert-butyl] | < 0.05 µM | 0.05 to 0.5 µM
